Patent US12612410B2 (CHILDREN'S HOSPITAL MEDICAL CENTER, priority 2020, dated 2026)

Target: T1, FLT3 ITD, D835V (Homo sapiens, UniProt P36888, D835V, form not given)
T1 construct: fused on or other part: DNA tag for qPCR detection (T7 phage fusion or DNA-tagged protein from HEK-293 cells)
T1 sequence (P36888 1-993 D835V): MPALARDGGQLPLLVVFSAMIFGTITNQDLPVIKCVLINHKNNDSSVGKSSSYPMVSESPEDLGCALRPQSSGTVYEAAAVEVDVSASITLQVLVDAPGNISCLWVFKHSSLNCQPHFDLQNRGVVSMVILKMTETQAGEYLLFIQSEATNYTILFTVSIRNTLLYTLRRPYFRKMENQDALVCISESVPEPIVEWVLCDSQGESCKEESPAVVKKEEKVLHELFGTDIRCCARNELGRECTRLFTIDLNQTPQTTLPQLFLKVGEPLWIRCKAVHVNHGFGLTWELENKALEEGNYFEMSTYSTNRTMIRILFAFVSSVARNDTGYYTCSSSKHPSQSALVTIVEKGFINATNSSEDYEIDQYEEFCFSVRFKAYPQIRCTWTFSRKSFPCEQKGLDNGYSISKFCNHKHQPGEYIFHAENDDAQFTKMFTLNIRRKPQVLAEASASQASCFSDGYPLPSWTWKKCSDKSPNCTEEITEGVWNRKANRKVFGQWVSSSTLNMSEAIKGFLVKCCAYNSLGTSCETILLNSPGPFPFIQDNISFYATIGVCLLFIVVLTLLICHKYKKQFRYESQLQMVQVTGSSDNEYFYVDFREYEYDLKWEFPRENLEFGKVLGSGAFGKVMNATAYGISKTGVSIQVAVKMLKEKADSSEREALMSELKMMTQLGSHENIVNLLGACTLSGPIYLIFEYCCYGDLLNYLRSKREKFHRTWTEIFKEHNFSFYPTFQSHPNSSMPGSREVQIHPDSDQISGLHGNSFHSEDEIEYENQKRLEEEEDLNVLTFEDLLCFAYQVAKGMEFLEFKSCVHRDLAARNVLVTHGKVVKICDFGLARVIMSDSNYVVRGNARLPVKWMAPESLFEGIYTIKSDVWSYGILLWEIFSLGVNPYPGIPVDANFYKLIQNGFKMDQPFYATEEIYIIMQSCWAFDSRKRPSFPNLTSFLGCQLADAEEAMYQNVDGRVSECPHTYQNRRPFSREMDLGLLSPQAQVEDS
Experiment: DiscoverX KINOMEscan competition binding, FLT3 ITD, D835V
Description: Kinase binding data were obtained for various exemplary compounds prepared according to Examples 1-24 using the DiscoverX KINOMVIEscan® active site-directed competition binding site-directed assay protocol described below. […] As a result, the data report thermodynamic interaction affinities (Kd values), rather than IC50 values that are dependent on ATP concentrations. The assay uses a DNA-tagged version of the protein kinase, and an immobilized ligand bound to a solid support. Compounds that directly or indirectly prevent kinase binding to the immobilized ligand reduce the amount of kinase captured on the solid support, which is detected using an ultra-sensitive qPCR method. Affinity constants reported from the assay have been reported to be independent of the immobilized ligand used that is coupled to the solid support (See supplemental information in Fabian, M. A. et. al., (2005) Nat. Biotechnol. 23, 329-336; Wodicka, L. M. et. al., (2010) Chem. Biol. 17, 1241-1249.)
Kinase-tagged T7 phage strains were prepared in an E. coli host derived from the BL21 strain. E. coli were grown to log-phase and infected with T7 phage and incubated with shaking at 32° C. until lysis. The lysates were centrifuged and filtered to remove cell debris. The remaining kinases were produced in HEK-293 cells and subsequently tagged with DNA for qPCR detection. Streptavidin-coated magnetic beads were treated with biotinylated small molecule ligands for 30 minutes at room temperature to generate affinity resins for kinase assays. The liganded beads were blocked with excess biotin and washed with blocking buffer (SeaBlock (Pierce), 1% BSA, 0.05% Tween 20, 1 mM DTT) to remove unbound ligand and to reduce non-specific binding. Binding reactions were assembled by combining kinases, liganded affinity beads, and test compounds in 1× binding buffer (20% SeaBlock, 0.17×PBS, 0.05% Tween 20, 6 mM DTT). Test compounds were prepared as 111× stocks in 100% DMSO. Kds were determined using an 11-point 3-fold compound dilution series with three DMSO control points. All compounds for Kd measurements are distributed by acoustic transfer (non-contact dispensing) in 100% DMSO. The compounds were then diluted directly into the assays such that the final concentration of DMSO was 0.9%. All reactions were performed in polypropylene 384-well plates. Each was a final volume of 0.02 mL. The assay plates were incubated at room temperature with shaking for 1 hour and the affinity beads were washed with wash buffer (1×PBS, 0.05% Tween 20). The beads were then re-suspended in elution buffer (1×PBS, 0.05% Tween 20, 0.5 μM nonbiotinylated affinity ligand) and incubated at room temperature with shaking for 30 minutes. The kinase concentration in the eluates was measured by qPCR.
Binding constants (Kds) were calculated with a standard dose-response curve using the Hill equation. The Hill Slope was set to −1. Curves were fitted using a non-linear least square fit with the Levenberg-Marquardt algorithm.

| SMILES | Kd |
| --- | --- |
| FC(F)c1cn2c(-c3cccc(N[C@H]4CNC[C@@H]4F)n3)cnc2cn1 [Compound 16, 6-(6-(difluoromethyl)imidazo[1,2-a]pyrazin-3-yl)-N-((3S,4S)-4-fluoropyrrolidin-3-yl)pyridin-2-amine] | 6 pM |
| F[C@H]1CNC[C@@H]1Nc1cccc(-c2cnc3cnc(C4CC4)cn23)n1 [Compound 50, 6-(6-cyclopropylimidazo[1,2-a]pyrazin-3-yl)-N-((3S,4S)-4-fluoropyrrolidin-3-yl)pyridin-2-amine] | 3 pM |
| CC1(c2cn3c(-c4cccc(N[C@H]5CNCC56CC6)n4)cnc3cn2)CC1 [Compound 5, (R)-N-(6-(6-(1-methylcyclopropyl)imidazo[1,2-a]pyrazin-3-yl)pyridin-2-yl)-5-azaspiro[2.4]heptan-7-amine] | 5 pM |
| FC(F)c1cn2c(-c3cccc(N[C@H]4CNCC[C@@H]4F)n3)cnc2cn1 [Compound 25, 6-(6-(difluoromethyl)imidazo[1,2-a]pyrazin-3-yl)-N-((3S,4S)-4-fluoropiperidin-3-yl)pyridin-2-amine] | 9 pM |
| CC1(c2cn3c(-c4cccc(N[C@@H]5CCNC5)n4)cnc3cn2)CC1 [Compound 3, (R)-6-(6-(1-methylcyclopropyl)imidazo[1,2-a]pyrazin-3-yl)-N-(pyrrolidin-3-yl)pyridin-2-amine] | 4 pM |
| Cn1cc(-c2cn3c(-c4cccc(N[C@H]5CNC[C@@H]5F)n4)cnc3cn2)cn1 [Compound 52, N-((3S,4S)-4-fluoropyrrolidin-3-yl)-6-(6-(1-methyl-1H-pyrazol-4-yl)imidazo[1,2-a]pyrazin-3-yl)pyridin-2-amine] | 3 pM |
| CC(C)(O)c1cn2c(-c3cccc(N[C@H]4CNCC[C@@H]4F)n3)cnc2cn1 [Compound 31, 2-(3-(6-(((3S,4S)-4-fluoropiperidin-3-yl)amino)pyridin-2-yl)imidazo[1,2-a]pyrazin-6-yl)propan-2-ol] | 44 pM |
| CC(C)(O)c1cn2c(-c3cccc(N[C@@H]4CCCNC4)n3)cnc2cn1 [Compound 30, (R)-2-(3-(6-(piperidin-3-ylamino)pyridin-2-yl)imidazo[1,2-a]pyrazin-6-yl)propan-2-ol] | 140 pM |
| FC(F)(F)C1(c2cn3c(-c4cccc(N[C@@H]5CCNC5)n4)cnc3cn2)CC1 [Compound 10, (R)-N-(pyrrolidin-3-yl)-6-(6-(1-(trifluoromethyl)cyclopropyl)imidazo[1,2-a]pyrazin-3-yl)pyridin-2-amine] | 11 pM |
| CC1(c2cn3c(-c4cccc(N[C@H]5CNC[C@@H]5F)n4)cnc3cn2)CC1 [Compound 1, N-((3S,4S)-4-fluoropyrrolidin-3-yl)-6-(6-(1-methylcyclopropyl)imidazo[1,2-a]pyrazin-3-yl)pyridin-2-amine] | 3 pM |
| FC(F)(F)COc1cn2c(-c3cccc(N[C@@H]4CCNC4)n3)cnc2cn1 [Compound 38, (R)-N-(pyrrolidin-3-yl)-6-(6-(2,2,2-trifluoroethoxy)imidazo[1,2-a]pyrazin-3-yl)pyridin-2-amine] | 26 pM |
